As a reminder, the pIC50 is the negative decadic logarithm of the IC50, by convention in mol/L.

One assay concerns the target human TLR9 (Homo sapiens (Human), UniProt Q9NR96). Kind of assay: TLR9 inhibition reporter assay (HEK-Blue cells, SEAP reporter, ODN2006 stimulation).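 Note: compounds tested over 0.05 nM to 50 µM, 22 h incubation, inhibition taken as SEAP signal drop from agonist plus DMSO wells toward a known inhibitor control.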 The settings on record: read-out: TLR9 IC50, HEK-Blue cells overexpressing human TLR9, ODN2006 5 nM. In general terms: In a reporter assay the amount or activity of a reporter protein is the signal.
The next assay addresses human TLR7 (Homo sapiens (Human), UniProt Q9NYK1). Kind of assay: TLR7 inhibition reporter assay (HEK-Blue cells, SEAP reporter, gardiquimod stimulation). The settings on record: HEK-Blue cells overexpressing human TLR7, gardiquimod 7.5 μM. It is filed as cell-based.
The target in another assay is human TLR8 (Homo sapiens (Human), UniProt Q9NR97). Kind of assay: TLR8 inhibition reporter assay (HEK-Blue cells, SEAP reporter, R848 stimulation).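 Note: compounds tested from 0.05 nM to 50 µM, 22 h at 37 °C, SEAP measured with HEK-Blue Detection, inhibition relative to agonist plus DMSO versus a known inhibitor.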 The settings on record: read-out: TLR8 IC50, HEK-Blue cells overexpressing human TLR8, R848 15.9 μM.
human TLR8, sequence (Q9NR97 27-1041): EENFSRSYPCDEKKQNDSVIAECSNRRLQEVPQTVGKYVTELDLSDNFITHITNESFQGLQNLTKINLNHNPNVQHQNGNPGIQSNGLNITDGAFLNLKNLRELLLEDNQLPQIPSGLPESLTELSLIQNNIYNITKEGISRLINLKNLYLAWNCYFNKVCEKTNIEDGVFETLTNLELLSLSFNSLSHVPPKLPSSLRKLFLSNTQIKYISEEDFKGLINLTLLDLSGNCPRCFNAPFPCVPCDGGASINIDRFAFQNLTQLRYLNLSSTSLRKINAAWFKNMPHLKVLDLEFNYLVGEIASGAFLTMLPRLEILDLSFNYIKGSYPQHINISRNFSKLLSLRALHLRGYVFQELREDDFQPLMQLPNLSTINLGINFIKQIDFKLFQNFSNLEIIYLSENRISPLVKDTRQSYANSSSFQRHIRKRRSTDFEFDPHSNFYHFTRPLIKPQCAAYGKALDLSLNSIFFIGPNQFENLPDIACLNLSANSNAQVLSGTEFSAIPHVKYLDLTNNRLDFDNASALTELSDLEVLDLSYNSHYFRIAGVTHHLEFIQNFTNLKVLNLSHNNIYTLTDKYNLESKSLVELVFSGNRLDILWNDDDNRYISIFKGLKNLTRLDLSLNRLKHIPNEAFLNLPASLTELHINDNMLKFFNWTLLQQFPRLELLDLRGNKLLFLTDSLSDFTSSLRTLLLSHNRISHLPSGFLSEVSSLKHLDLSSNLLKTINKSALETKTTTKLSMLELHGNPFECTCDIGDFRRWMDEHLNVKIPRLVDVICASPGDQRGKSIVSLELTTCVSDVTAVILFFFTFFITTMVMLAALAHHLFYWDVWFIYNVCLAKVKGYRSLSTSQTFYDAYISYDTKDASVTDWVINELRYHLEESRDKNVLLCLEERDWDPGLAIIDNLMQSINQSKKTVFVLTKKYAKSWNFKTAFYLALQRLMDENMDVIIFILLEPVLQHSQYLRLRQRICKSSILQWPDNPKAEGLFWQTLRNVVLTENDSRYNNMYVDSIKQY

Structures are written as SMILES. pIC50: −log10 of the molar value.

human TLR9, sequence (Q9NR96 26-1032): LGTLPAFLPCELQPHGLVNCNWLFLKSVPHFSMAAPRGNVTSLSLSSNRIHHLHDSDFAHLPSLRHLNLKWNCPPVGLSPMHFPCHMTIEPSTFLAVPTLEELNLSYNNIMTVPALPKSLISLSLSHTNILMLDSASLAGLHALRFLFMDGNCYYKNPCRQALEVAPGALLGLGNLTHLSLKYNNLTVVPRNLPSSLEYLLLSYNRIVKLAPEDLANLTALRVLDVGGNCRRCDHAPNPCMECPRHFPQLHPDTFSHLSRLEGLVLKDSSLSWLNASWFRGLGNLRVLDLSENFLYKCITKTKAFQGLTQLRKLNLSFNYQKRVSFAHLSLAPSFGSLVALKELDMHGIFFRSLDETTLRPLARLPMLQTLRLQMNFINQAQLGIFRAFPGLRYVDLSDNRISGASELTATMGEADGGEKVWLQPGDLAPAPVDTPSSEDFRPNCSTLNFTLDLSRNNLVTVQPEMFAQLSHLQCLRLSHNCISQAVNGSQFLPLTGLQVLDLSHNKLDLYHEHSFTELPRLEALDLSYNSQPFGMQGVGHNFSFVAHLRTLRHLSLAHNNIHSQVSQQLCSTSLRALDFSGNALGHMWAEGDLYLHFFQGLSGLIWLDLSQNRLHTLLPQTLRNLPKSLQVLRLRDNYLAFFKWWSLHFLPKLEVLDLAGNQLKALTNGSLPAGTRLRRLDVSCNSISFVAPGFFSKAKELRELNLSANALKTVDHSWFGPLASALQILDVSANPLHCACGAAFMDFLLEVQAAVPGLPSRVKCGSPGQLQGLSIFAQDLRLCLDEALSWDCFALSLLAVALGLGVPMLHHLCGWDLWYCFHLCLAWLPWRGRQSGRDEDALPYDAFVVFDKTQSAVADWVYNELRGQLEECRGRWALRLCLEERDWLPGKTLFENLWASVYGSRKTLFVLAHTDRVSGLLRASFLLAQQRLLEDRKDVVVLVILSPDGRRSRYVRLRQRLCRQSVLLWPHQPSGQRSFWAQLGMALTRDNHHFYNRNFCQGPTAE
human TLR7, sequence (Q9NYK1 27-1049): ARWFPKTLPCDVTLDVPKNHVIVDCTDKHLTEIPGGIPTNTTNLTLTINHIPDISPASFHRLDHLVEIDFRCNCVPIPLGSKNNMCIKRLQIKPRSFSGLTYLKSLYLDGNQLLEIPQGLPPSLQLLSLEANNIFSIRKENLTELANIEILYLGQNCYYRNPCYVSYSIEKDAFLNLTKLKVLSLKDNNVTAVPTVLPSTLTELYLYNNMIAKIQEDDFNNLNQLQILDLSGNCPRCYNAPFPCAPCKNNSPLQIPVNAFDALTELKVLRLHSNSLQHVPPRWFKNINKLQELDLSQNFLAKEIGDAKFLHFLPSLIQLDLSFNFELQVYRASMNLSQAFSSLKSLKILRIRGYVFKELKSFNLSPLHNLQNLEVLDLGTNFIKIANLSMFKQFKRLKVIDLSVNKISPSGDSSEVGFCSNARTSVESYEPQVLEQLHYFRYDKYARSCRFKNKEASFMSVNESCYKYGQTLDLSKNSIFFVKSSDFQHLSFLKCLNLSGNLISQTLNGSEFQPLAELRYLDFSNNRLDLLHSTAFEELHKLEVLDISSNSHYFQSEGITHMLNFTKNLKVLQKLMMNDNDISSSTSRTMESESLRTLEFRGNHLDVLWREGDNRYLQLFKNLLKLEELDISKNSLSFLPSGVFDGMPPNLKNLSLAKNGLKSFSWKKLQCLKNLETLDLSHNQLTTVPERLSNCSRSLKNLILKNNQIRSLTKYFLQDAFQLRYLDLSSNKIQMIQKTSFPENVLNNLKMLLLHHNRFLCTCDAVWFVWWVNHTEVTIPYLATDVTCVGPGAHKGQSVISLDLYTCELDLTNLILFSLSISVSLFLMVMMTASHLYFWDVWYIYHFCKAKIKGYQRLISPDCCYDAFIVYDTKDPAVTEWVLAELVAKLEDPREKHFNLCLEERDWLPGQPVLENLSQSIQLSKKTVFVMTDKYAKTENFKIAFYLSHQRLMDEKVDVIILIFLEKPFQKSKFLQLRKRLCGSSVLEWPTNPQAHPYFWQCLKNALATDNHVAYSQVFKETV
Procedure for human TLR7: TLR7/8/9 Inhibition Reporter Assays
Briefly, cells are seeded into Greiner 384 well plates (15000 cells per well for TLR7, 20,000 for TLR8 and 25,000 for TLR9) and then treated with test compounds in DMSO to yield a final dose response concentration range of 0.05 nM-50 μM. […] After a 22 hour incubation at 37° C., 5% CO2, SEAP levels are determined with the addition of HEK-Blue™ Detection reagent (Invivogen), a cell culture medium that allows for detection of SEAP, according to manufacturer's specifications. The percent inhibition is determined as the % reduction in the HEK-Blue signal present in wells treated with agonist plus DMSO alone compared to wells treated with a known inhibitor.

Consider `COCCN1CCC(c2ccc3[nH]c(-c4cc(C)nc(C)c4)c(C(C)C)c3c2)CC1` [Example 325, 2-(2,6-dimethylpyridin-4-yl)-3-isopropyl-5-(1-(2-methoxyethyl)piperidin-4-yl)-1H-indole], for which the pIC50 was 6.46 at human TLR9, 8.51 against human TLR7 and 8.42 at human TLR8.

For `Cc1cc(-c2[nH]c3ccc(C4CCN(C5CCCC5)CC4)cc3c2C(C)C)cc(C)n1` [Example 326, 5-(1-cyclopentylpiperidin-4-yl)-2-(2,6-dimethylpyridin-4-yl)-3-isopropyl-1H-indole], the negative-log IC50 (pIC50) at human TLR9 was 5.95; on human TLR7, 7.79; on human TLR8, 7.53.

Regarding `Cc1cc(-c2[nH]c3ccc(C4CCN(CC(F)F)CC4)cc3c2C(C)C)cc(C)n1` [Example 327, 5-(1-(2,2-difluoroethyl)piperidin-4-yl)-2-(2,6-dimethylpyridin-4-yl)-3-isopropyl-1H-indole], the pIC50 on human TLR9 was 5.43; on human TLR7, 7.81; on human TLR8, 7.28.

For the molecule `Cc1cc(-c2[nH]c3ccc(C4CCN(CC5CCCCC5)CC4)cc3c2C(C)C)cc(C)n1` [Example 328, 5-(1-(cyclohexylmethyl)piperidin-4-yl)-2-(2,6-dimethylpyridin-4-yl)-3-isopropyl-1H-indole], the results for the pIC50 at human TLR9, at human TLR7 and at human TLR8 were 5.14, 7.30 and 7.11, respectively.

Take `Cc1cc(-c2[nH]c3ccc(C4CCN(CCO)CC4)cc3c2C(C)C)cc(C)n1` [Example 329, 2-(4-(2-(2,6-dimethylpyridin-4-yl)-3-isopropyl-1H-indol-5-yl)piperidin-1-yl)ethan-1-ol]: the pIC50 on human TLR9 is 6.36; against human TLR7, 8.68; on human TLR8, 8.55.

For the molecule `COCCCN1CCC(c2ccc3[nH]c(-c4cc(C)nc(C)c4)c(C(C)C)c3c2)CC1` [Example 330, 2-(2,6-dimethylpyridin-4-yl)-3-isopropyl-5-(1-(3-methoxypropyl)piperidin-4-yl)-1H-indole], the negative logarithm of the IC50 (pIC50) on human TLR9 is 6.00; at human TLR7, 8.43; at human TLR8, 8.38.

Regarding `Cc1cc(-c2[nH]c3ccc(C4CCN(CC(C)O)CC4)cc3c2C(C)C)cc(C)n1` (stereo not drawn) [Example 331, 1-(4-(2-(2,6-dimethylpyridin-4-yl)-3-isopropyl-1H-indol-5-yl)piperidin-1-yl)propan-2-ol], the negative-log IC50 (pIC50) is 6.25 on human TLR9, 8.62 against human TLR7 and 8.46 at human TLR8.

For the molecule `COC(C)CN1CCC(c2ccc3[nH]c(-c4cc(C)nc(C)c4)c(C(C)C)c3c2)CC1` (stereo not drawn) [Example 332, 2-(2,6-dimethylpyridin-4-yl)-3-isopropyl-5-(1-(2-methoxypropyl)piperidin-4-yl)-1H-indole], the results for the negative logarithm of the IC50 (pIC50) on human TLR9, against human TLR7 and at human TLR8 were 6.40, 8.28 and 8.35, respectively.

For `Cc1cc(-c2[nH]c3ccc(C4CCN(CC5COC5)CC4)cc3c2C(C)C)cc(C)n1` [Example 333, 2-(2,6-dimethylpyridin-4-yl)-3-isopropyl-5-(1-(oxetan-3-ylmethyl)piperidin-4-yl)-1H-indole], the negative logarithm of the IC50 (pIC50) on human TLR9 was 6.44; against human TLR7, 9.10; on human TLR8 it was 8.85.

On to `Cc1cc(-c2[nH]c3ccc(C4CCN(C(=O)CNC5CCC5)CC4)cc3c2C(C)C)cc(C)n1` [Example 334, 2-(cyclobutylamino)-1-(4-(2-(2,6-dimethylpyridin-4-yl)-3-isopropyl-1H-indol-5-yl)piperidin-1-yl)ethan-1-one], for which the negative-log IC50 (pIC50) on human TLR9 is 6.32; against human TLR7 it was 8.64; at human TLR8, 8.12.

In the case of `Cc1cc(-c2[nH]c3ccc(C4CCN(C(=O)CNCCO)CC4)cc3c2C(C)C)cc(C)n1` [Example 336, 1-(4-(2-(2,6-dimethylpyridin-4-yl)-3-isopropyl-1H-indol-5-yl)piperidin-1-yl)-2-((2-hydroxyethyl)amino)ethan-1-one], the pIC50 was 6.57 at human TLR9, 8.82 against human TLR7 and 8.01 at human TLR8.

Regarding `Cc1cc(-c2[nH]c3ccc(C4CCN(C(=O)CNCC(C)(C)C)CC4)cc3c2C(C)C)cc(C)n1` [Example 337, 1-(4-(2-(2,6-dimethylpyridin-4-yl)-3-isopropyl-1H-indol-5-yl)piperidin-1-yl)-2-(neopentylamino)ethan-1-one], the figures for the pIC50 at human TLR9, at human TLR7 and on human TLR8 were 6.33, 8.17 and 7.74, respectively.

`Cc1cc(-c2[nH]c3ccc(C4CCN(C(=O)CNCC(C)C)CC4)cc3c2C(C)C)cc(C)n1` [Example 338, 1-(4-(2-(2,6-dimethylpyridin-4-yl)-3-isopropyl-1H-indol-5-yl)piperidin-1-yl)-2-(isobutylamino)ethan-1-one]: the figures for the pIC50 on human TLR9, at human TLR7 and on human TLR8 were 6.26, 8.24 and 7.63, respectively.

On to `Cc1cc(-c2[nH]c3ccc(C4CCN(C(=O)CNCC5CC5)CC4)cc3c2C(C)C)cc(C)n1` [Example 339, 2-((cyclopropylmethyl)amino)-1-(4-(2-(2,6-dimethylpyridin-4-yl)-3-isopropyl-1H-indol-5-yl)piperidin-1-yl)ethan-1-one], for which the negative-log IC50 (pIC50) on human TLR9 was 6.06; at human TLR7, 8.55; on human TLR8, 7.88.

As for `Cc1cc(-c2[nH]c3ccc(C4CCN(C(=O)CN5CC(F)(F)C5)CC4)cc3c2C(C)C)cc(C)n1` [Example 340, 2-(3,3-difluoroazetidin-1-yl)-1-(4-(2-(2,6-dimethylpyridin-4-yl)-3-isopropyl-1H-indol-5-yl)piperidin-1-yl)ethan-1-one], the results for the negative logarithm of the IC50 (pIC50) on human TLR9, on human TLR7 and at human TLR8 were 4.44, 7.83 and 6.98, respectively.

For `Cc1cc(-c2[nH]c3ccc(C4CCN(C(=O)CN5CCC(F)(F)C5)CC4)cc3c2C(C)C)cc(C)n1` [Example 341, 2-(3,3-difluoropyrrolidin-1-yl)-1-(4-(2-(2,6-dimethylpyridin-4-yl)-3-isopropyl-1H-indol-5-yl)piperidin-1-yl)ethan-1-one], the pIC50 at human TLR9 was 4.60; against human TLR7, 7.64; at human TLR8 it was 6.67.

`Cc1cc(-c2[nH]c3ccc(C4CCN(C(=O)CNC56CC7CC(CC(C7)C5)C6)CC4)cc3c2C(C)C)cc(C)n1` [Example 342, 2-(adamantan-1-ylamino)-1-(4-(2-(2,6-dimethylpyridin-4-yl)-3-isopropyl-1H-indol-5-yl)piperidin-1-yl)ethan-1-one]: the pIC50 at human TLR9 is 6.18; on human TLR7, 7.58; on human TLR8 it was 7.17.

As for `Cc1cc(-c2[nH]c3ccc(C4CCN(C(=O)CNC56CC7CC(CC(O)(C7)C5)C6)CC4)cc3c2C(C)C)cc(C)n1` [Example 343, 1-(4-(2-(2,6-dimethylpyridin-4-yl)-3-isopropyl-1H-indol-5-yl)piperidin-1-yl)-2-((3-hydroxyadamantan-1-yl)amino)ethan-1-one], the figures for the pIC50 on human TLR9, on human TLR7 and on human TLR8 were 6.16, 8.01 and 7.69, respectively.

With `Cc1cc(-c2[nH]c3ccc(C4CCN(C(=O)CNC(C)C)CC4)cc3c2C(C)C)cc(C)n1` [Example 344, 1-(4-(2-(2,6-dimethylpyridin-4-yl)-3-isopropyl-1H-indol-5-yl)piperidin-1-yl)-2-(isopropylamino)ethan-1-one], the pIC50 at human TLR9 is 6.31; on human TLR7, 8.60; on human TLR8, 8.08.

Regarding `CCC(CC)NCC(=O)N1CCC(c2ccc3[nH]c(-c4cc(C)nc(C)c4)c(C(C)C)c3c2)CC1` [Example 345, 1-(4-(2-(2,6-dimethylpyridin-4-yl)-3-isopropyl-1H-indol-5-yl)piperidin-1-yl)-2-(pentan-3-ylamino)ethan-1-one], the pIC50 is 6.26 at human TLR9, 7.91 against human TLR7 and 7.47 at human TLR8.

In the case of `COCCNCC(=O)N1CCC(c2ccc3[nH]c(-c4cc(C)nc(C)c4)c(C(C)C)c3c2)CC1` [Example 346, 1-(4-(2-(2,6-dimethylpyridin-4-yl)-3-isopropyl-1H-indol-5-yl)piperidin-1-yl)-2-((2-methoxyethyl)amino)ethan-1-one], the values for the pIC50 at human TLR9, against human TLR7 and on human TLR8 were 5.95, 8.37 and 7.78, respectively.

On to `Cc1cc(-c2[nH]c3ccc(C4CCN(C(=O)CNCCC(C)(C)C)CC4)cc3c2C(C)C)cc(C)n1` [Example 347, 2-((3,3-dimethylbutyl)amino)-1-(4-(2-(2,6-dimethylpyridin-4-yl)-3-isopropyl-1H-indol-5-yl)piperidin-1-yl)ethan-1-one], for which the pIC50 at human TLR9 was 6.12; at human TLR7 it was 7.76; at human TLR8, 7.32.

Turning to `CCCNCC(=O)N1CCC(c2ccc3[nH]c(-c4cc(C)nc(C)c4)c(C(C)C)c3c2)CC1` [Example 348, 1-(4-(2-(2,6-dimethylpyridin-4-yl)-3-isopropyl-1H-indol-5-yl)piperidin-1-yl)-2-(propylamino)ethan-1-one], the negative-log IC50 (pIC50) is 6.37 on human TLR9, 8.44 on human TLR7 and 7.95 at human TLR8.

For the molecule `CCOCCNCC(=O)N1CCC(c2ccc3[nH]c(-c4cc(C)nc(C)c4)c(C(C)C)c3c2)CC1` [Example 349, 1-(4-(2-(2,6-dimethylpyridin-4-yl)-3-isopropyl-1H-indol-5-yl)piperidin-1-yl)-2-((2-ethoxyethyl)amino)ethan-1-one], the pIC50 was 5.87 on human TLR9, 8.28 against human TLR7 and 7.66 at human TLR8.

As for `Cc1cc(-c2[nH]c3ccc(C4CCN(C(=O)CN5CCOCC5)CC4)cc3c2C(C)C)cc(C)n1` [Example 350, 1-(4-(2-(2,6-dimethylpyridin-4-yl)-3-isopropyl-1H-indol-5-yl)piperidin-1-yl)-2-morpholinoethan-1-one], the values for the negative logarithm of the IC50 (pIC50) on human TLR9, against human TLR7 and at human TLR8 were 5.41, 8.28 and 7.54, respectively.

For the origin of these results see patent US10660877B2 (BRISTOL-MYERS SQUIBB COMPANY, priority 2016, dated 2020).
